Test results taken from patent CN101862374A, “莲子心及其提取物的新用途” (Individual, priority 2010, dated 2010).
Blank lines part the entries; values can stand above or below the molecule they belong to.

Legend:
[1] = system: rat myocardium with ischemia-reperfusion injury [大鼠缺血再灌注损伤心肌]; settings: cited from earlier work
[2] = system: type II 5α-reductase [II型5α-还原酶]; assay: DHT kit assay of 5α-reductase inhibition; format: biochemical; settings: 37 °C, 30 min
[3] = system: experimental hyperlipidemic rats [实验性高脂血症大鼠]; settings: rat; cited from earlier work
[4] = system: type II 5α-reductase [II型5α-还原酶]; assay: Spectrophotometric (NADPH, 340 nm) 5α-reductase inhibition; format: biochemical; settings: for mean inhibition rate: NADPH consumption, 10 min, 37 °C, serial concentrations, average; for inhibition rate compared with finasteride: versus finasteride [非那甾胺]
[5] = system: rat cerebral ischemia-reperfusion [大鼠脑缺血再灌注]; settings: cited from earlier work
[6] = system: prostate smooth muscle α1-AR [前列腺平滑肌α1-AR]; assay: Competitive inhibition of 125IBE binding to α1-AR of prostate smooth muscle membranes; design: species or system rat; settings: high dose
[7] = system: oxidatively damaged erythrocytes [氧化损伤红细胞]; settings: cited from earlier work
autoxidation [自氧化] = settings: cited from earlier work
[8] = system: hyperlipidemia model rats [高血脂症模型大鼠]; settings: rat; cited from earlier work
[9] = system: platelets of hyperlipidemia patients and healthy persons [高脂血症患者和健康人血小板]; settings: in vitro, blood, several inducers; cited from earlier work

inhibition of 5α-reductase activity by change of DHT concentration [2]: 有明显抑制作用 | mean inhibition rate [4]: 71.43% | inhibition of 5α-reductase activity (in words) ([4]; by NADPH determination): 有明显抑制作用 | inhibition rate compared with finasteride [4]: 强于非那甾胺 | inhibition of prostate smooth muscle α1-AR [6]: 能抑制前列腺平滑肌α1-AR
SMILES: COc1cc2c(cc1OC)[C@@H](Cc1ccc(O)c(Oc3cc4c(cc3OC)CCN(C)[C@@H]4Cc3ccc(O)cc3)c1)N(C)CC2 [莲心碱]
area of myocardial infarction [1]: 可减少心肌梗死的面积 | damage of myocardial cells [1]: 减轻心肌细胞的损伤 | protection of ischemia-reperfusion injured myocardium [1]: 有保护作用 | atherosclerosis index [3]: 显著降低 | serum low-density lipoprotein cholesterol [3]: 显著降低 | serum total cholesterol [3]: 显著降低 | serum triglycerides [3]: 显著降低 | C-Fos protein expression after cerebral ischemia-reperfusion [5]: 抑制脑缺血再灌注后NOS和C-Fos蛋白的表达 | NOS expression after cerebral ischemia-reperfusion [5]: 抑制脑缺血再灌注后NOS和C-Fos蛋白的表达 | extent of infarct lesion [5]: 可显著减少大鼠梗死病灶范围

inhibition of 5α-reductase activity by change of DHT concentration [2]: 有明显抑制作用 | mean inhibition rate [4]: 65.48% | inhibition rate compared with finasteride [4]: 强于非那甾胺
SMILES: COc1ccc(C[C@@H]2c3cc(Oc4cc(C[C@@H]5c6cc(O)c(OC)cc6CCN5C)ccc4O)c(OC)cc3CCN2C)cc1 [异莲心碱]
protection of oxidatively damaged erythrocytes [7]: 对氧化损伤红细胞有保护作用 | inhibition of autoxidation (autoxidation [自氧化]): 能显著抑制自氧化

mean inhibition rate [4]: 57.14%
SMILES: CC(C)(C)NC(=O)[C@H]1CC[C@H]2[C@@H]3CC[C@H]4NC(=O)C=C[C@]4(C)[C@H]3CC[C@]12C [非那雄胺, reference compound]

inhibition of 5α-reductase activity by change of DHT concentration [2]: 有明显抑制作用 | mean inhibition rate [4]: 68.22% | inhibition rate compared with finasteride [4]: 强于非那甾胺 | inhibition of prostate smooth muscle α1-AR [6]: 能抑制前列腺平滑肌α1-AR
SMILES: COc1ccc(C[C@@H]2c3cc(Oc4cc(C[C@@H]5c6cc(OC)c(OC)cc6CCN5C)ccc4O)c(OC)cc3CCN2C)cc1 [甲基莲心碱]
antioxidant action of the organism [8]: 增强机体抗氧化作用 | degree of lipid peroxidation [8]: 减轻脂质过氧化的程度 | effect on blood lipids [8]: 具有显著的抑制作用 | inhibition of platelet aggregation [9]: 可明显抑制多种诱聚剂诱导的高脂血症患者和健康人血小板聚集
